The refractive index is a measure of how strongly the sample bends light. The term mass density denotes mass per unit of volume.

Data set [1] in a line: refractive index (Na D-line) (dimensionless). To be noted: 298.15 K; 101.33 kPa; Liquid; Standard Abbe refractometry.
For data set [2] the following is noted: 298.15 K; 101.33 kPa; Liquid.

± gives the expanded uncertainty stated by the source.

For `c1ccccc1` [benzene], the refractive index in data set [1] stood at 1.49764 ± 0.00054. In addition, the mass density in data set [2] amounted to 873.57 ± 0.96 kg/m3.
Consider `CCO` [ethanol], for which the refractive index in data set [1] was 1.35928 ± 0.00052. Further, in data set [2], the mass density is on record as 785.27 ± 0.98 kg/m3.

The values are drawn from the NIST ThermoML archive (doi:10.1021/je600578u).
